Assay results taken from ChEMBL document CHEMBL1201862, “PubChem BioAssay data set” (2004).
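Step 1: Grow cells in 96-well plates. Step 2: Expose to compound for 48 hours at 5 concentrations. Step 3: Interpolate endpoints linearly; if unreached, use highest concentration. The concentration for 50% growth inhibition is given as GI50.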 Activity calls are given as the source filed them. Cut-off read from the data, not from the text of the source: active = GI50 up to about 1.1 µM and inactive = higher.

Assays:
Test in all cases: inhibition of tumour cell growth, NCI panel, 48 h
[1] = tested on: OVCAR-3
[2] = tested on: MDA-MB-231
[3] = tested on: MDA-MB-435
[4] = tested on: UO-31
[5] = tested on: K562
[6] = tested on: UACC-257
[7] = tested on: RXF 393
[8] = tested on: Malme-3M
[9] = tested on: SK-MEL-28
[10] = tested on: HT-29
[11] = tested on: A549
[12] = tested on: MCF7
[13] = tested on: DU-145
[14] = tested on: NCI/ADR-RES
[15] = tested on: HL-60
[16] = tested on: SN12C
[17] = tested on: SNB-75
[18] = tested on: HCT-15
[19] = tested on: NCI-H23
[20] = tested on: SK-MEL-5
[21] = tested on: OVCAR-4
[22] = tested on: MDA-N
[23] = tested on: NCI-H226
[24] = tested on: BT-549
[25] = tested on: HCC 2998
[26] = tested on: NCI-H460
[27] = tested on: CCRF-CEM
[28] = tested on: Hs-578T
[29] = tested on: T47D
[30] = tested on: HCT-116
[31] = tested on: NCI-H522
[32] = tested on: EKVX
[33] = tested on: MOLT-4
[34] = tested on: UACC-62
[35] = tested on: TK-10
[36] = tested on: SR
[37] = tested on: PC-3
[38] = tested on: OVCAR-5
[39] = tested on: SF-539
[40] = tested on: SF-268
[41] = tested on: U-251
[42] = tested on: KM12
[43] = tested on: RPMI-8226
[44] = tested on: SK-MEL-2
[45] = tested on: SNB-19
[46] = tested on: A498
[47] = tested on: SW-620
[48] = tested on: ACHN
[49] = tested on: LOX IMVI
[50] = tested on: HOP-62
[51] = tested on: M14
[52] = tested on: SF-295
[53] = tested on: COLO 205
[54] = tested on: OVCAR-8
[55] = tested on: SK-OV-3
[56] = tested on: IGROV-1
[57] = tested on: CAKI-1
[58] = tested on: 786-0
[59] = tested on: HOP-92

Measured: GI50

CC(C)=C1C(=O)C[C@@]2(C)C[C@H]3OC3(C)CC/C=C(/C)CCC12 (some centres not stated)
75.9 µM: [18]
inactive: [1] 56.8 µM | [2] > 100 µM | [3] 64 µM | [4] 68.2 µM | [5] 50.6 µM | [6] 50.4 µM | [7] > 10 µM | [8] > 100 µM | [9] > 100 µM | [10] 53.7 µM | [11] 75.2 µM | [12] 71.9 µM | [13] > 100 µM | [14] 18.3 µM | [15] 21.8 µM | [16] > 100 µM | [17] 80 µM | [19] 91.8 µM | [20] > 100 µM | [21] 90.8 µM | [22] > 100 µM | [23] 69.7 µM | [24] 99.5 µM | [25] > 100 µM | [26] 62.4 µM | [27] 58.7 µM | [28] > 100 µM | [29] 49.4 µM | [30] 65 µM | [31] 27.8 µM | [32] 48.2 µM | [33] 35.4 µM | [34] 50.5 µM | [35] > 100 µM | [36] 70.6 µM | [37] 25.2 µM

COc1ccc2c(c1)C(=O)C1CCC(=O)N1C2c1ccc2c(c1)OCO2 (configuration not stated)
inactive: [1] 3.64 µM | [2] 12.2 µM | [38] 14.9 µM | [39] 23 µM | [3] 6.21 µM | [4] 10.6 µM | [40] 13.6 µM | [5] 3.36 µM | [6] 16.9 µM | [41] 15.2 µM | [8] 4.89 µM | [42] 8.87 µM | [43] 2.91 µM | [9] 11.3 µM | [10] 4.12 µM | [11] 21 µM | [12] 4.83 µM | [44] 13 µM | [45] 13.8 µM | [46] 17 µM | [47] 5.36 µM | [13] 18.2 µM | [14] 22.7 µM | [15] 2.79 µM | [48] 12.1 µM | [16] 12.1 µM | [17] 14.9 µM | [19] 15.1 µM | [20] 11.4 µM | [21] 25.4 µM | [22] 8.32 µM | [23] 15.7 µM | [24] 4.26 µM | [49] 9.59 µM | [25] 14.8 µM | [26] 23.9 µM | [27] 3.09 µM | [50] 18.6 µM | [51] 12.9 µM | [28] 27.2 µM | [52] 15.9 µM | [29] 14.2 µM | [30] 3.67 µM | [53] 8.65 µM | [31] 5.04 µM | [32] 20.3 µM | [54] 18.1 µM | [33] 2.74 µM | [55] 26.3 µM | [34] 13.6 µM | [56] 16.5 µM | [57] 19.7 µM | [35] 30.8 µM | [58] 24.8 µM | [36] 4.56 µM | [37] 4.2 µM
12.2 µM: [18]

CN(C(=O)Cc1ccccc1)n1cnn(CC(=O)OC(C)(C)C)c1=S
> 10 µM: [18]
inactive: [1] > 10 µM | [2] > 10 µM | [38] > 10 µM | [39] > 10 µM | [3] > 10 µM | [4] > 10 µM | [40] > 10 µM | [5] > 10 µM | [6] > 10 µM | [41] > 10 µM | [8] > 10 µM | [42] > 10 µM | [43] > 10 µM | [9] > 10 µM | [10] > 10 µM | [11] > 10 µM | [12] > 10 µM | [45] > 10 µM | [46] > 10 µM | [47] > 10 µM | [13] > 10 µM | [14] > 10 µM | [48] > 10 µM | [16] > 10 µM | [17] > 10 µM | [19] > 10 µM | [20] > 10 µM | [21] > 10 µM | [22] > 10 µM | [24] > 10 µM | [49] > 10 µM | [25] > 10 µM | [26] > 10 µM | [27] > 10 µM | [50] > 10 µM | [51] > 10 µM | [28] > 10 µM | [52] > 10 µM | [29] > 10 µM | [59] > 10 µM | [30] > 10 µM | [53] > 10 µM | [31] > 10 µM | [32] > 10 µM | [54] > 10 µM | [33] > 10 µM | [55] > 10 µM | [34] > 10 µM | [56] > 10 µM | [57] > 10 µM | [35] > 10 µM | [58] > 10 µM | [36] > 10 µM | [37] > 10 µM

Cc1nn(-c2ccccc2)c(C)c1/C=N/N=C1\SCC(=O)N1c1ccccc1
inactive: [1] 24.9 µM | [2] 35 µM | [38] 27.7 µM | [39] 22.9 µM | [3] 20.5 µM | [4] 21.5 µM | [40] 28.4 µM | [5] 25.8 µM | [6] 32.4 µM | [7] 16.5 µM | [41] 25.8 µM | [8] 21.2 µM | [42] 25 µM | [43] 13.4 µM | [9] 22.3 µM | [10] 20.5 µM | [11] 28.6 µM | [12] 27.4 µM | [44] 25.7 µM | [45] 43.1 µM | [46] 23.6 µM | [47] 33.9 µM | [13] 31.8 µM | [14] 18.5 µM | [15] 30.8 µM | [48] 17.3 µM | [16] 44.7 µM | [17] 20.4 µM | [19] 27.5 µM | [20] 15 µM | [21] 10.6 µM | [22] 20.9 µM | [23] 23.6 µM | [24] 22 µM | [49] 22.6 µM | [25] 20.3 µM | [26] 18.3 µM | [27] 25 µM | [50] 37.9 µM | [51] 28.6 µM | [28] 37.2 µM | [52] 21.5 µM | [29] 26.5 µM | [30] 19.1 µM | [53] 14.9 µM | [32] 12.4 µM | [54] 21.7 µM | [33] 30.8 µM | [55] 29.8 µM | [34] 21.4 µM | [56] 32.3 µM | [57] 19.4 µM | [35] 26.2 µM | [58] 15.8 µM | [36] 25.1 µM | [37] 19.2 µM
17.9 µM: [18]

NS(=O)(=O)c1cc2c(cc1Cl)NC(Cc1ccccc1)NS2(=O)=O (configuration not stated) [BENZYLHYDROCHLOROTHIAZIDE]
> 100 µM: [18]
inactive: [1] > 100 µM | [2] > 100 µM | [38] > 100 µM | [39] 45.1 µM | [3] 45.1 µM | [4] > 100 µM | [40] > 100 µM | [5] 63.1 µM | [6] > 100 µM | [7] > 100 µM | [41] > 100 µM | [8] > 100 µM | [42] > 100 µM | [43] 53.1 µM | [9] > 100 µM | [10] > 100 µM | [11] > 100 µM | [12] 60.4 µM | [44] > 100 µM | [45] > 100 µM | [46] > 100 µM | [47] 41.7 µM | [13] > 100 µM | [14] > 100 µM | [48] > 100 µM | [16] > 100 µM | [17] > 100 µM | [19] > 100 µM | [20] > 100 µM | [21] > 100 µM | [22] 53.7 µM | [23] > 100 µM | [24] > 100 µM | [49] 99.8 µM | [25] > 100 µM | [26] > 100 µM | [50] > 100 µM | [51] > 100 µM | [28] > 100 µM | [52] > 100 µM | [29] > 100 µM | [59] > 100 µM | [30] 46.1 µM | [53] > 100 µM | [31] > 100 µM | [32] > 100 µM | [54] > 100 µM | [55] > 100 µM | [34] > 100 µM | [56] > 100 µM | [57] > 100 µM | [35] > 100 µM | [58] > 100 µM | [36] 61 µM | [37] > 100 µM
